# According to US20030166721A1, “Choline derivative for the treatment of alzheimer's disease” (priority 2000, published 2003):
# Legend:
# Wistar rats [1] = assay: Behavioural and EEG effects in rats at different doses; assay type: in vivo, rat
# Protocol: Young male Wistar rats (200-260) were used in the experiments, housed in a standard temperature and humidity conditions, with food and water ad libitum.
# The animals, anaesthetised with chloral hydrate (400 mg/kg) […], were stereotaxically implanted (Kopft Instruments) with cortical electrodes (n=4) onto the fronto-parietal region of the neocortex on both cerebral hemispheres, to record EEG. After surgery all animals were housed 48 h to allow a complete recovery.
# 48 Hours after electrode implantation, the animals, placed in a transparent box and freely moving, were connected with an electroencephalograph and the electrocortical activity was continuously monitored and recorded. After a 30 min control time, the compounds under test were intraperitoneally administered and EEG recording was continued for 90-120 min
# EEG was recorded by computerised 24-channels apparatus (Vega 24, Galileo type, ESA-OTE Biomedica, Florence, Italy), while the spectrum activity was quantitatively analysed by a Berg Fourier analyser (ESA-OTE Biomedica, Florence, Italy). The total EEG power (0.25-16 Hz range) was divided into 5 variable frequency bands: δ 0.25-3 Hz, θ 3-6; α1 6-9; α2 9-12 and β12-16 Hz.
# The EEG patterns and behavioral effects observed in the rat after administration of the choline derivatives and of the vehicle is reported in 5 Tab. 3. Such effects can be ascribed to the changes of EEG spectrum total power. An […] in EEG total power is related with the presence of slow frequency waves (synchronisation), whereas an […] thereof is related with the presence of rapid frequency waves (desynchronisation).
# Wistar rats [2] = assay: EEG spectral qualitative and quantitative analysis in freely moving rats after i.p. administration; assay type: in vivo, rat
# Protocol: Young male Wistar rats (200-260) were used in the experiments, housed in a standard temperature and humidity conditions, with food and water ad libitum. […] After surgery all animals were housed 48 h to allow a complete recovery. 48 Hours after electrode implantation, the animals, placed in a transparent box and freely moving, were connected with an electroencephalograph and the electrocortical activity was continuously monitored and recorded. […] Qualitative and quantitative analysis on the electrocortical activity EEG recording was subsequently carried out. The animals were divided in 4 groups, the first group acted as the control, the second received cytidine-5′-diphosphocholine (CDP-choline), the third and fourth received PC-1 and PC-2, respectively (pivaloylcholine iodide and pivaloyleholine trimethylacetate, respectively). The control group received an equal volume of saline solution by the same procedure. […] Statistical analysis was performed by analysis of variance (ANOVA) for multiple measurements followed, if significant, by the post-hoc Tuckey-Kramer test. A comparison between groups was performed to exclude any individual variability.
# rats = assay: Synergistic effect with tacrine: qEEG of neocortical activity in rats; assay type: in vivo, rat; settings: n=7
# Protocol: Results reported in Table 5 show the synergistic effect of the combination of tacrine with the choline derivatives of the present invention.
# Vehicle: 2 ml/Kg; all drugs were administered i.p., PC-1 and PC-2 at corresponding equimolar doses (15 μmol/2 ml/kg^−1); THA (tacrine) (5 mg/kg) was administered 30 min before compounds; atropine (0.1 mg/kg) was injected 15 min before PC-1 and PC-2. The number of animals was 7 per each group. Values represent EEG power (μV/s).
# [3] = target: T1, Choline Specific Transport System (HUCT) (Rattus norvegicus, UniProt Q9JMD7); assay: EEG after ICV Hemicholinium-3 (choline uptake blocker) pretreatment; assay type: in vivo; settings: rats, i.p. at the active dose after Hch3 pretreatment
# T1 construct: from tissue; host or cells: brain of living Wistar rats (in vivo, ICV microinfusion, EEG read-out)
# T1 sequence (Q9JMD7 1-580): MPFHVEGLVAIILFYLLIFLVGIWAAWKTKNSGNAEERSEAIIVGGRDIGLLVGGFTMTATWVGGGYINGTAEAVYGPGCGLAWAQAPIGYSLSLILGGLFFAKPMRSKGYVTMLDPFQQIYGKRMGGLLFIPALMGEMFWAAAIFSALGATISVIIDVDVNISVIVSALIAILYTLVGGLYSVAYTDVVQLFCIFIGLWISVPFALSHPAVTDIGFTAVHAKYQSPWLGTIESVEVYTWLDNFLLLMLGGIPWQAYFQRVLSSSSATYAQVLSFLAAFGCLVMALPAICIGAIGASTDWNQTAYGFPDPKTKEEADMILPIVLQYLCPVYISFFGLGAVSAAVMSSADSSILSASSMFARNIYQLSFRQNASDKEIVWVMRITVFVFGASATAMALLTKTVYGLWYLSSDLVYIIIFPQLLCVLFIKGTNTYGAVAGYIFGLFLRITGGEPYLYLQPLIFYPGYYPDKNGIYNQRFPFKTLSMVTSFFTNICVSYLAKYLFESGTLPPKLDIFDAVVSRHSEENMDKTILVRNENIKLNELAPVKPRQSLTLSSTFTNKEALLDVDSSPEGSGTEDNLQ
# Protocol: FIG. 4B—Effect on EEG spectrum power after treatment with PC-1 (5 mg i.p.) administered 15 min after microinfusion of Hch3 (0.1 ng/0.5 μl) in the III ventricule. As in FIG. 4a, time (min) is reported in abscissa, the EEG spectrum power expressed as μV^2/s is reported in ordinate. Graphics report the EEG spectrum total power (0.25-16 Hz).
# [4] = after i.p. administration, % ± SEM
# [5] = i.p. (vol. 0.5 ml), mean ± SEM, 7 tests
# [6] = rats i.p., PC-1/PC-2 15 μmol/2 ml/kg, THA 5 mg/kg 30 min before, atropine 0.1 mg/kg 15 min before
structure (smiles),measurement,setting,value
"CC(C)(C)C(=O)OCC[N+](C)(C)C.[I-] [PC-1, pivaloylcholine iodide]",Behaviour,Wistar rats [1]; 1 mg,Alert response
same,EEG Activity (change of EEG total power),Wistar rats [1]; 1 mg,Decrease
same,Behaviour,Wistar rats [1]; 5 mg,Alert response
same,EEG Activity (change of EEG total power),Wistar rats [1]; 5 mg,Decrease
same,Behaviour,Wistar rats [1]; 50 mg,Convulsions and death (50%)
same,EEG Activity (change of EEG total power),Wistar rats [1]; 50 mg,Peaks
same,Change of slow EEG spectrum components (FIG. 3),Wistar rats [2],decrease in slow components (delta and theta) of the spectrum
same,Duration of the decrease in EEG total power,Wistar rats [2]; 5 mg i.p.,15 min
same,Time to onset of EEG desynchronization and significant decrease in EEG total power,Wistar rats [2]; 5 mg i.p.,15 min
same,EEG frequency band 0.25-3 Hz,Wistar rats [2]; [4],4.3 ± 0.7(*) %
same,EEG frequency band 3-6 Hz,Wistar rats [2]; [4],18 ± 0.6(*) %
same,EEG frequency band 6-9 Hz,Wistar rats [2]; [4],32.5 ± 1.3%
same,EEG frequency band 9-12 Hz,Wistar rats [2]; [4],19.3 ± 0.9%
same,EEG frequency band 12-16 Hz,Wistar rats [2]; [4],13 ± 1.0%
same,Effect of atropine given 15 min before the compound,Wistar rats [2]; atropine pretreatment,antagonize the effects
same,"EEG total power (fronto-parietal cortex), Baseline","Wistar rats [2]; before i.p. injection (vol. 0.5 ml), mean ± SEM, 7 tests",120 ± 2.9
same,"EEG total power (fronto-parietal cortex), 15′",Wistar rats [2]; [5],82 ± 3.6(*)
same,"EEG total power (fronto-parietal cortex), 30′",Wistar rats [2]; [5],128 ± 3.2
same,"EEG total power (fronto-parietal cortex), 45′",Wistar rats [2]; [5],110 ± 2.7
same,"EEG total power (fronto-parietal cortex), 60′",Wistar rats [2]; [5],120 ± 4.3
same,"EEG total power (fronto-parietal cortex), 75′",Wistar rats [2]; [5],125 ± 3.5
same,"EEG total power (fronto-parietal cortex), 90′",Wistar rats [2]; [5],127 ± 4
same,"EEG power (qEEG of neocortical activity), 15″",rats; [6],68 μV/s
same,"EEG power (qEEG of neocortical activity), 30″",rats; [6],120 μV/s
same,"EEG power (qEEG of neocortical activity), 45″",rats; [6],127 μV/s
same,"EEG power (qEEG of neocortical activity), 60″",rats; [6],115 μV/s
same,"EEG power (qEEG of neocortical activity), 75″",rats; [6],129.5 μV/s
same,"EEG power (qEEG of neocortical activity), 90″",rats; [6],117 μV/s
same,"EEG power (qEEG of neocortical activity), 105″",rats; [6],132.5 μV/s
same,"EEG power (qEEG of neocortical activity), 120″",rats; [6],18.5 μV/s
same,"EEG power (qEEG of neocortical activity), 135″",rats; [6],135 μV/s
same,EEG effect with tacrine given 30 min before,"rats; rats, THA 5 mg/Kg i.p. 30 min before 15 μmol i.p.",long-lasting EEG desynchronization and significant decrease in EEG spectrum total power
same,"EEG power (qEEG of neocortical activity), Baseline","rats; rats, before i.p. treatment",112.5 μV/s
same,Alert response and EEG desynchronization after Hch3 pretreatment,[3],induced neither alert response not EEG desynchronization
